# Results from the METLIN SMRT retention time set (Domingo-Almenara et al. 2019).
# Experiment: gradient 5% acetonitrile 3 min, to 50% in 2 min, to 85% in 15 min, held 3 min, 100 µL/min
# Conditions: column: Zorbax Extend-C18 2.1 x 50 mm; eluents: water / acetonitrile, 0.1% formic acid
# In short: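 Pure standards were run in mixtures of ~100 molecules by HPLC coupled to a quadrupole time-of-flight mass spectrometer. The column was a Zorbax Extend-C18 (2.1 × 50 mm, 1.8 μm) at 100 μL/min, with water and acetonitrile each containing 0.1% formic acid, in positive and negative ionization mode. Dead and dwell volumes were 40 μL and 900 μL. Retention time was taken from computationally picked adduct peaks, each manually inspected, with data collected over 3 months.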
row,RP-LC retention time [s],Compound
1,590,O=C(CN1C(=O)C2CCCCN2C(=O)c2ccccc21)NCCN1CCCCCC1 (stereo unspecified)
2,812,CCOC(=O)c1cccc(NC(=O)C2CCN(C(=O)C3Sc4ccccc4NC3=O)CC2)c1 (stereo unspecified)
3,576,Cc1cc(N2CCN(C)CC2)nc2ccc(NC(=O)c3cccc([N+](=O)[O-])c3)cc12
4,1110,COC(=O)c1ccccc1NC(=O)Cn1cnc2c(sc3nc(-c4ccccc4)ccc32)c1=O
5,590,COc1ccc(CNC(=O)NCC2(CO)CC2)cc1OC
6,892,CCn1cc(-c2nc(CC(=O)Nc3ccccc3)cs2)c2cccnc21
7,801,Cc1ccc(Cl)cc1NC(=O)N1CCC(OC2CCN(S(C)(=O)=O)CC2)CC1
8,770,O=C(Nc1ccc2c(c1)N(C(=O)c1ccco1)CC2)c1ccc2c(c1)OCO2
9,609,CCOc1ccc(-n2c(CN3CCN(C(=O)NCCCOC)CC3)nc3cccnc32)cc1
10,574,O=C(Nc1ccc(-c2nc3ccccc3[nH]2)cc1)c1ccccc1[N+](=O)[O-]
11,764,Cc1nc(NC(=O)c2cc(C3CC3)n(C3CCS(=O)(=O)C3)n2)sc1C (stereo unspecified)
12,767,CCOC(=O)c1cc(S(=O)(=O)N2CCCC2C(=O)N2CCCCC2)cn1C (stereo unspecified)
13,713,O=C(c1cc2ccccc2[nH]1)N1CCOCC1
14,651,O=c1c2cc(-c3ccccc3)nn2ccn1Cc1noc(CN2CCCCC2)n1
15,920,COc1ccc(C(=O)N2CCc3cn(C)c4cccc(c34)C2)cc1
16,843,COc1cccc(-c2ccc3nc(N4CCC(C(=O)N5CCOCC5)CC4)sc3n2)c1
17,884,CC(C)N(Cc1ccccc1)C(=O)c1cc2c(=O)n3ccccc3nc2n1C
18,1190,CCc1nc2cc(-c3noc(-c4ccc(F)cc4)n3)ccc2o1
19,909,O=C(CSc1ccc(F)cc1)NCC1(c2ccc(F)cc2)CC1
20,626,Fc1ccc(OCc2nc(C3CCNC3)no2)cc1 (stereo unspecified)
21,557,c1ccc(-c2noc(C3CNC3)n2)cc1
22,584,COc1ccccc1-c1nc(Cn2ccnc2C)no1
23,693,CCS(=O)(=O)c1nc2ccc(NS(=O)(=O)c3c(C)n[nH]c3C)cc2s1

row,RP-LC retention time [s],Compound
1,751,Cc1cc(N)c2cc(NC(=O)/C=C\c3ccccc3Cl)ccc2n1
2,604,COCCn1c(CC2CCN(C(=O)c3ccc(C)s3)C2)nc2cccnc21 (stereo unspecified)
3,939,COc1ccc(C2CC(=O)N(c3cccc(Cl)c3)C(=O)C2)cc1
4,838,CCN(C(=O)C1CCC(C)CC1)c1nc(-c2ccccc2)cs1 (stereo unspecified)
5,596,Cc1cccc(-c2ncccc2CNC(=O)c2ccco2)c1
6,575,O=C(NCC1CCCO1)c1ccc2ncnc(N3CCCC3)c2c1 (stereo unspecified)
7,757,CCC1CN(C(=O)N2CCC(C(=O)NCCCOC)CC2)c2cc(C)ccc2O1 (stereo unspecified)
8,1240,CC1CCN(c2ncc(S(=O)(=O)c3ccc(C(C)C)cc3)c(N)n2)CC1
9,573,CC(=O)N1CCc2[nH]c3ccc(C(=O)NCc4ccc(N5CCN(C)CC5)cc4)cc3c2C1
10,790,Cc1ccc(Nc2c(-c3ccc(C(=O)O)cc3)nc3cnccn23)cc1Cl
11,665,COc1ccc(N2CC(c3nc(-c4cccnc4)no3)CC2=O)cc1OC (stereo unspecified)
12,1250,CCOc1nc2ccccc2nc1N1CCCC(C(=O)NC2CCCCCC2)C1 (stereo unspecified)
13,894,COCC(=O)N(CC(=O)N1CCc2sccc2C1COc1cccc(OC)c1)CC(C)C (stereo unspecified)
14,700,COc1ccc(N2CCN(c3nc4ccc(C)cc4cc3-c3noc(C)n3)CC2)cc1
15,625,CCC(=O)Nc1ccc(CCc2nc3ccc(C(=O)NC4CCCC4)cc3[nH]2)cc1
16,618,O=C(NCc1ccccc1)N1CCCC(Cn2cnc3cccnc32)C1 (stereo unspecified)
17,574,CCn1ccc2sc(C)c(C(=O)N3CCN(CC(C)C)CC3)c2c1=O
18,582,COc1cc(CN2CCCC2c2cc(C)on2)cc(OC)c1O (stereo unspecified)
19,875,O=C(C1=CN(c2ccc(C(F)(F)F)cc2)c2cc(F)ccc2S1(=O)=O)N1CCOCC1
20,900,CCCN1C(=O)COc2ccc(-c3noc(C(C)NC(=O)c4ccccc4)n3)cc21 (stereo unspecified)
21,710,CCOc1cccc2sc(N(CCN(C)C)C(=O)c3ccco3)nc12
22,928,Cc1ccc(-n2ccc(=O)c(-c3nc(-c4cccc(F)c4)no3)n2)cc1
23,591,CC(C)NC(=O)Nc1ccccc1NC(=O)c1cccnc1

row,RP-LC retention time [s],Compound
1,718,O=C1NCC/C1=C\c1ccc(C(F)(F)F)cc1
2,838,O=C(CN1N=C(C(=O)Nc2ccc(F)cc2)CCC1=O)Nc1ccc(F)c(F)c1
3,972,Cc1cccc(OCC(=O)Nc2ccc3c(c2)Sc2ncccc2C(=O)N3C(C)C)c1
4,656,COc1cc(OC)cc(C(=O)NC(C)C(=O)Nc2nc3ccccc3[nH]2)c1 (stereo unspecified)
5,774,O=C(Nc1cccn2nc(C3CCC3)nc12)C1CCCO1 (stereo unspecified)
6,561,Cn1c(=O)n(C)c2cc(CNc3ccc4[nH]c(=O)[nH]c4c3)ccc21
7,716,CCN1CCN(C(=O)Cn2c(=O)c3cnc(-c4ccc(Cl)cc4)nc3n(CC)c2=O)CC1
8,904,O=C(C1=NN(Cc2cccc(F)c2)c2cc(Cl)ccc2S1(=O)=O)N1CCOCC1
9,659,COc1cc(C(=O)N(Cc2ccc(N(C)C)cc2)CC2CCCO2)cc(OC)c1OC (stereo unspecified)
10,1090,CCc1nc(-c2csc(S(=O)(=O)N3CCCC(C(=O)Nc4cc(F)ccc4F)C3)c2)no1 (stereo unspecified)
11,829,CCCCC(=O)N1CCN(c2ccc(=O)n(-c3ccc(Cl)cc3)n2)CC1
12,875,Cc1ccc2[nH]cc(CCN3CC(C(=O)NC4CCCCCC4)CC3=O)c2c1 (stereo unspecified)
13,587,O=C(CN1CCN(Cc2nc(-c3ccc(N4CCCCC4)nc3)no2)CC1)N1CCCC1
14,803,CCn1cc(C(=O)N2CCc3ccccc32)c2nn(-c3ccccc3)c(=O)c-2c1
15,700,COc1ccc(NC(=O)N2CCC3(CC2)NC(=O)c2ccccc2N3C)cc1
16,740,O=C(Nc1ccc(Br)cc1)Nc1ccc2nc3n(c(=O)c2c1)CCCC3
17,736,O=C(O)c1cc2c(s1)CCN(C(=O)c1ccc(Cl)cc1)C2
18,631,CCn1cc(S(=O)(=O)N2CCC(n3c(C)cnc3-c3ccccc3)CC2)cn1
19,657,Cc1ccc2nc(-c3cccc(S(=O)(=O)N4CCCC4)c3)cn2c1
20,780,COc1ccc(NC(=O)c2ccc(-n3cnc(NC(=O)C4CC4)c3)cc2)cc1Cl
21,715,CCN1C(=O)CCc2cc(NC(=O)c3ccsc3)ccc21
22,648,O=C(O)[C@@H]1OCC(=O)N(C2CC2)[C@H]1c1ccccc1
23,616,CCc1nc2cccnc2n1CCN1CCN(C(=O)Nc2cccc(Br)c2)CC1

row,RP-LC retention time [s],Compound
1,593,Cc1cnc(C(=O)NCC2CCCCC(=O)N2)cn1 (stereo unspecified)
2,1100,CCN(CC)S(=O)(=O)c1ccc(C)c(-c2nnc(-c3ccc(F)cc3)o2)c1
3,620,CC(=O)N1c2ccc(S(=O)(=O)N3CCC(c4ccncc4)CC3)cc2CC1C (stereo unspecified)
4,784,Cc1ccccc1Cn1cc(S(=O)(=O)N2CCOCC2)ccc1=O
5,984,O=c1n(Cc2ccccc2)nc2c(-c3nc(-c4ccccc4)no3)cccn12
6,693,Cc1noc(-c2ccnc(-n3ncc(C(=O)N4CCOCC4)c3C)c2)n1
7,822,CCOC(=O)c1c(C)[nH]c(C(=O)N2CCC(CC(=O)NCc3ccc(C)cc3)CC2)c1C
8,906,CCCS(=O)(=O)c1nc2ccc(NS(=O)(=O)c3ccccc3Cl)cc2s1
9,660,COc1cccc(CNC(=O)C2CCc3nc(N4CCOCC4)ncc3C2)c1 (stereo unspecified)
10,738,CCn1c(C(=O)NC(C)CCc2ccco2)cc2sc(Cl)cc21 (stereo unspecified)
11,1180,COc1cccc(CNc2ccc(-c3nc(-c4ccc(F)cc4)no3)cn2)c1
12,780,CCN1CCCn2cc(S(=O)(=O)NCc3cccc(C)c3)cc2C1=O
13,1030,CCOC(=O)c1ccc2c(c1)NCc1cccc(OC)c1O2
14,1010,COC(=O)c1cc2ccsc2n1CC(=O)Nc1ccc(F)c(Cl)c1
15,760,O=C(c1ccc(-c2noc(C3CC3)n2)cc1)N1CCCN(c2nc3ncccc3o2)CC1
16,822,COc1ccc(C)cc1NC(=O)N1CCc2cn(C)c3cccc(c23)C1
17,816,Cn1cc(C2=CCN(C(=O)c3cccc(F)c3)CC2)c2cccnc21
18,694,CCCS(=O)(=O)N1CCN(c2ccc(-n3cccn3)nn2)CC1
19,640,Cc1ccsc1C(=O)Nc1cccc(-c2nnc3n2CCCC3)c1
20,678,CC(C)CN1CCN(S(=O)(=O)c2cc(-c3nnc(C4CCCC4)o3)co2)CC1
21,1110,CCn1c(=O)oc2cc(-c3noc(-c4cccc(F)c4)n3)ccc21
22,983,Cc1nc(CC(=O)Nc2nc(-c3ccc(Cl)cc3)c(C)s2)cs1
